Data reported in the CheMixHub viscosity set.

Experiment: xn = mol fraction of the nth substance listed

COCCOCCOC + CCCCCCCCCCCCCCCC
viscosity [mPa·s], 101.33 kPa
Conditions | x1 = 0.1013 | x1 = 0.2067 | x1 = 0.3071 | x1 = 0.403 | x1 = 0.5078 | x1 = 0.6013 | x1 = 0.7004 | x1 = 0.7997 | x1 = 0.9021
298.15 K | 2.629 | 2.359 | 2.101 | 1.9 | 1.721 | 1.568 | 1.4 | 1.262 | 1.106
308.15 K | 2.107 | 1.885 | 1.712 | 1.552 | 1.414 | 1.29 | 1.173 | 1.058 | 0.934
318.15 K | 1.69 | 1.515 | 1.385 | 1.288 | 1.178 | 1.08 | 0.984 | 0.89 | 0.799

COCCOCCOC + CCCCCCCCCO
101 kPa
Conditions | viscosity [mPa·s]
293.15 K, x1 = 0.03749 | 9.714
293.15 K, x1 = 0.09901 | 7.617
293.15 K, x1 = 0.1933 | 5.424
293.15 K, x1 = 0.2971 | 3.978
293.15 K, x1 = 0.4043 | 3.002
293.15 K, x1 = 0.4948 | 2.43
293.15 K, x1 = 0.597 | 1.978
293.15 K, x1 = 0.6959 | 1.641
293.15 K, x1 = 0.822 | 1.36
293.15 K, x1 = 0.9135 | 1.201
293.15 K, x1 = 0.9364 | 1.177
303.15 K, x1 = 0.03786 | 6.826
303.15 K, x1 = 0.1002 | 5.439
303.15 K, x1 = 0.1822 | 4.165
303.15 K, x1 = 0.2967 | 3.028
303.15 K, x1 = 0.4005 | 2.353
303.15 K, x1 = 0.5022 | 1.911
303.15 K, x1 = 0.5943 | 1.603
303.15 K, x1 = 0.7009 | 1.347
303.15 K, x1 = 0.7989 | 1.167
303.15 K, x1 = 0.894 | 1.038
303.15 K, x1 = 0.9511 | 0.975
313.15 K, x1 = 0.03928 | 4.899
313.15 K, x1 = 0.1017 | 4.015
313.15 K, x1 = 0.198 | 3.05
313.15 K, x1 = 0.304 | 2.349
313.15 K, x1 = 0.3952 | 1.91
313.15 K, x1 = 0.5025 | 1.559
313.15 K, x1 = 0.5982 | 1.312
313.15 K, x1 = 0.6977 | 1.134
313.15 K, x1 = 0.7914 | 1.001
313.15 K, x1 = 0.8971 | 0.884
313.15 K, x1 = 0.9456 | 0.842

COCCOCCOC + CCCCCCCO
101 kPa
Conditions | viscosity [mPa·s]
293.15 K, x1 = 0.04527 | 5.749
293.15 K, x1 = 0.09631 | 4.758
293.15 K, x1 = 0.1964 | 3.424
293.15 K, x1 = 0.2974 | 2.659
293.15 K, x1 = 0.3948 | 2.201
293.15 K, x1 = 0.4982 | 1.826
293.15 K, x1 = 0.5957 | 1.573
293.15 K, x1 = 0.6957 | 1.385
293.15 K, x1 = 0.8053 | 1.255
293.15 K, x1 = 0.8916 | 1.169
293.15 K, x1 = 0.957 | 1.12
303.15 K, x1 = 0.05391 | 4.113
303.15 K, x1 = 0.09481 | 3.59
303.15 K, x1 = 0.198 | 2.635
303.15 K, x1 = 0.2974 | 2.097
303.15 K, x1 = 0.3935 | 1.765
303.15 K, x1 = 0.4894 | 1.515
303.15 K, x1 = 0.5993 | 1.294
303.15 K, x1 = 0.6968 | 1.153
303.15 K, x1 = 0.8032 | 1.053
303.15 K, x1 = 0.8887 | 0.999
303.15 K, x1 = 0.9613 | 0.958
313.15 K, x1 = 0.05044 | 3.122
313.15 K, x1 = 0.0869 | 2.793
313.15 K, x1 = 0.1869 | 2.128
313.15 K, x1 = 0.2981 | 1.689
313.15 K, x1 = 0.3977 | 1.428
313.15 K, x1 = 0.5081 | 1.228
313.15 K, x1 = 0.5937 | 1.096
313.15 K, x1 = 0.7001 | 0.974
313.15 K, x1 = 0.7989 | 0.903
313.15 K, x1 = 0.8893 | 0.848
313.15 K, x1 = 0.9538 | 0.819
